Legend:
Assay in all cases: Drug combination assay (CellTiter-Glo cell viability)
Format in all cases: cell-based
H2030 cells (KRAS G12C) = conditions: six days, 96-wells
Method: (§1) Cells were seeded in either 96-well or 384-well plates 16 h before treatment at a density of 1000 cells per well. Then, cells were treated with varying concentrations of compound(s) as indicated in FIGS. 1-8 (384-wells) and FIGS. 10-105 (96-wells), either a single agent or in combination, for six days. The relative number of viable cells was estimated using CellTiter-Glo Luminescent Cell Viability Assay (Promega, G7573). Total luminescence was detected on a Wallac Multilabel Reader (Perkin-Elmer).

[1] = test system: H358 parental cells (KRAS G12C); conditions: six days, 96-wells
Method: as §1

[2] = test system: H358 resistant cells (KRAS G12C); conditions: six days, 96-wells
Method: as §1

H2122 cells (KRAS G12C) = conditions: six days, 384-wells
Method: as §1

[3] = combination with Compound K1 (a KRAS inhibitor)
[4] = combination with Compound K2 (a KRAS inhibitor)
[5] = combination with Compound K3 (a KRAS inhibitor)
[6] = combination with Compound K4 (a KRAS inhibitor)

| Structure (SMILES) | % inhibition of H2030 cells (KRAS G12C) (H2030 cells (KRAS G12C); [3]) | % inhibition of H2030 cells (KRAS G12C) (H2030 cells (KRAS G12C); [4]) | % inhibition of H2030 cells (KRAS G12C) (H2030 cells (KRAS G12C); [5]) | % inhibition of H2030 cells (KRAS G12C) (H2030 cells (KRAS G12C); [6]) | % inhibition of H358 parental cells (KRAS G12C) [1, 3] | % inhibition of H358 parental cells (KRAS G12C) [1, 4] | % inhibition of H358 parental cells (KRAS G12C) [1, 5] | % inhibition of H358 parental cells (KRAS G12C) [1, 6] | combination effect on cell viability (qualitative) [2, 3] | combination effect on cell viability (qualitative) [2, 4] | combination effect on cell viability (qualitative) [2, 5] | combination effect on cell viability (qualitative) [2, 6] | % inhibition of H2122 cells (KRAS G12C) (H2122 cells (KRAS G12C); [3]) | % inhibition of H2122 cells (KRAS G12C) (H2122 cells (KRAS G12C); [4]) |
| --- | --- | --- | --- | --- | --- | --- | --- | --- | --- | --- | --- | --- | --- | --- |
| Cc1nccnc1-c1nn2c(=O)cc(-c3ccc(C4CCCCC4)cc3)[nH]c2c1C(=O)N1C[C@H](CF)[C@@H]1C (racemic) [Compound T9, 5-(4-cyclohexylphenyl)-2-(3-methylpyrazin-2-yl)-3-[rac-(2S,3S)-3-(fluoromethyl)-2-methyl-azetidine-1-carbonyl]-4H-pyrazolo[1,5-a]pyrimidin-7-one] | sensitizes cells resistant to Compound K1 | sensitizes cells resistant to Compound K2 | sensitizes cells resistant to Compound K3 | sensitizes cells resistant to Compound K4 | sensitizes cells resistant to Compound K1 | sensitizes cells resistant to Compound K2 | sensitizes cells resistant to Compound K3 | sensitizes cells resistant to Compound K4 | sensitizes cells resistant to Compound K1 | sensitizes cells resistant to Compound K2 | sensitizes cells resistant to Compound K3 | sensitizes cells resistant to Compound K4 |  |  |
| C=C(CNc1cc(-c2ccc(C(C)C)cc2)c2c(c1C#N)CCO2)C(=O)O [Compound T4, 2-(((4-cyano-7-(4-isopropylphenyl)-2,3-dihydrobenzofuran-5-yl)amino)methyl)acrylic acid] |  |  |  |  |  |  |  |  |  |  |  |  | sensitizes cells resistant to Compound K1 | sensitizes cells resistant to Compound K2 |
| COc1cnc(C(=O)NCc2cccc(CC(=O)N(C)CCOCCOCCOCCOCCOc3ccc4c(c3)C(=O)N(C3CCC(=O)NC3=O)C4=O)c2)cc1/C=C/[C@H]1CC[C@H](C(F)(F)F)CC1 (stereo partly drawn) [Compound T5, N-[[3-[2-[2-[2-[2-[2-[2-[2-(2,6-dioxo-3-piperidyl)-1,3-dioxo-isoindolin-5-yl]oxyethoxy]ethoxy]ethoxy]ethoxy]ethyl-methyl-amino]-2-oxo-ethyl]phenyl]methyl]-5-methoxy-4-[rac-(E)-2-[4-(trifluoromethyl)cyclohexyl]vinyl]pyridine-2-carboxamide] | sensitizes cells resistant to Compound K1 | sensitizes cells resistant to Compound K2 | sensitizes cells resistant to Compound K3 | sensitizes cells resistant to Compound K4 | sensitizes cells resistant to Compound K1 | sensitizes cells resistant to Compound K2 | sensitizes cells resistant to Compound K3 | sensitizes cells resistant to Compound K4 | sensitizes cells resistant to Compound K1 | sensitizes cells resistant to Compound K2 | sensitizes cells resistant to Compound K3 | sensitizes cells resistant to Compound K4 |  |  |
| C[C@@H](NC(=O)c1ccc2c(Oc3ccc(C(F)(F)F)cc3)cccc2c1)c1cccc(N)n1 [Compound T6, N-[(1R)-1-(6-amino-2-pyridyl)ethyl]-5-[4-(trifluoromethyl)phenoxy]naphthalene-2-carboxamide] | sensitizes cells resistant to Compound K1 | sensitizes cells resistant to Compound K2 | sensitizes cells resistant to Compound K3 | sensitizes cells resistant to Compound K4 | sensitizes cells resistant to Compound K1 | sensitizes cells resistant to Compound K2 | sensitizes cells resistant to Compound K3 | sensitizes cells resistant to Compound K4 | sensitizes cells resistant to Compound K1 | sensitizes cells resistant to Compound K2 | sensitizes cells resistant to Compound K3 | sensitizes cells resistant to Compound K4 |  |  |
| C[C@H](NC(=O)c1ccc2c(-c3ccc(C(F)(F)F)cc3)cccc2c1)c1ccccn1 [Compound T7, N-[(1S)-1-(2-pyridyl)ethyl]-5-[4-(trifluoromethyl)phenyl]naphthalene-2-carboxamide] | sensitizes cells resistant to Compound K1 | sensitizes cells resistant to Compound K2 | sensitizes cells resistant to Compound K3 | sensitizes cells resistant to Compound K4 | sensitizes cells resistant to Compound K1 | sensitizes cells resistant to Compound K2 | sensitizes cells resistant to Compound K3 | sensitizes cells resistant to Compound K4 | sensitizes cells resistant to Compound K1 | sensitizes cells resistant to Compound K2 | sensitizes cells resistant to Compound K3 | sensitizes cells resistant to Compound K4 |  |  |
| CNS(=O)(=O)c1ccc(Nc2ccc(C(F)(F)F)cc2)c(-c2cn(C)cn2)c1 [Compound T8, N-methyl-3-(1-methylimidazol-4-yl)-4-[4-(trifluoromethyl)anilino]benzenesulfonamide] | sensitizes cells resistant to Compound K1 | sensitizes cells resistant to Compound K2 | sensitizes cells resistant to Compound K3 | sensitizes cells resistant to Compound K4 | sensitizes cells resistant to Compound K1 | sensitizes cells resistant to Compound K2 | sensitizes cells resistant to Compound K3 | sensitizes cells resistant to Compound K4 | sensitizes cells resistant to Compound K1 | sensitizes cells resistant to Compound K2 | sensitizes cells resistant to Compound K3 | sensitizes cells resistant to Compound K4 |  |  |
| Cn1cc2c3cc(C(=O)O)ccc3n(-c3ccc(C(F)(F)F)cc3)c2n1 [Compound T10] | sensitizes cells resistant to Compound K1 | sensitizes cells resistant to Compound K2 | sensitizes cells resistant to Compound K3 | sensitizes cells resistant to Compound K4 | sensitizes cells resistant to Compound K1 | sensitizes cells resistant to Compound K2 | sensitizes cells resistant to Compound K3 | sensitizes cells resistant to Compound K4 | sensitizes cells resistant to Compound K1 | sensitizes cells resistant to Compound K2 | sensitizes cells resistant to Compound K3 | sensitizes cells resistant to Compound K4 |  |  |

— patent US20240148733A1, “COMBINATION THERAPY” (Genentech, Inc., priority 2021, published 2024)
